{"source": "paper PMC4516224", "about": "(Pharmaceutical research, 2008)", "key": {"[1]": {"conditions": "rabbit; in the absence of an inhibitor"}, "rPCEC [2]": {"system": "rPCEC", "assay": "Cellular accumulation of [14C] erythromycin in rPCEC", "type": "cell-based, rabbit"}, "rPCEC [3]": {"system": "rPCEC", "assay": "Cell proliferation assay", "type": "cell-based, rabbit", "conditions": "steroid 500 μM with erythromycin, 12 h, data not shown"}, "P-gp": {"biological_target": "P-gp (Homo sapiens, UniProt P08183)", "sequence (P08183 whole entry)": "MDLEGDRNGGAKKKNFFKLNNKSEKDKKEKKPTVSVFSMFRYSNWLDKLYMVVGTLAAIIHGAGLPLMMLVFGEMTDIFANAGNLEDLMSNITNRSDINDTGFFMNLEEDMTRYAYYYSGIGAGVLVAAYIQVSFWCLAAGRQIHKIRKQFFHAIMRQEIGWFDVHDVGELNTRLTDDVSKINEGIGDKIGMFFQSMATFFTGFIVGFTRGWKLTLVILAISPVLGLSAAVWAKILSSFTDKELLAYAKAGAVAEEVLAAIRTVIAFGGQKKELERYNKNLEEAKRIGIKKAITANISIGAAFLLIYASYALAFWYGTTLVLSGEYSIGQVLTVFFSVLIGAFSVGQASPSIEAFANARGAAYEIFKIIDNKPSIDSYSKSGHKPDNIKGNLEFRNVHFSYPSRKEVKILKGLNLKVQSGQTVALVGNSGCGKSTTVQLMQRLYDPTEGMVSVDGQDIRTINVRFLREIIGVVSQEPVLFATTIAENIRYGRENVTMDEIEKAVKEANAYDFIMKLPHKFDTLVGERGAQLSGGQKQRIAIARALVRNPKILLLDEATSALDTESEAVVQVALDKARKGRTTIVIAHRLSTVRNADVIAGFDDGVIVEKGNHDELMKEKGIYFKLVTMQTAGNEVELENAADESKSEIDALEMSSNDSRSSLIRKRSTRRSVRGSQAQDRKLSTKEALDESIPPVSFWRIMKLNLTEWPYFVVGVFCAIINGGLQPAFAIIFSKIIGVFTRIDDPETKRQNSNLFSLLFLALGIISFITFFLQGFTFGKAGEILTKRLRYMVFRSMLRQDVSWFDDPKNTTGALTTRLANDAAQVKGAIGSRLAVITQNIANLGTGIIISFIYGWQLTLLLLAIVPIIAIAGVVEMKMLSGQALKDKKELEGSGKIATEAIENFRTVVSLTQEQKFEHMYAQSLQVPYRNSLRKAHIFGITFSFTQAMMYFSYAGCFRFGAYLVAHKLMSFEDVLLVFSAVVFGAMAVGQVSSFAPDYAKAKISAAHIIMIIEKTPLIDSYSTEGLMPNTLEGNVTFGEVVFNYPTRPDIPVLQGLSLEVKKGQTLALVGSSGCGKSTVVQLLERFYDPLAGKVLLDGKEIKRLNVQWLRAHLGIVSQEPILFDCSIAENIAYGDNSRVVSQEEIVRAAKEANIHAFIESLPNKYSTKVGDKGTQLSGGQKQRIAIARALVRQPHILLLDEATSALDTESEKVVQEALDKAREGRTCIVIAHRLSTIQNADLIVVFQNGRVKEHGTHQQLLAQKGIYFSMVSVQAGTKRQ", "assay": "Bi-directional transport across MDCK-MDR1 cell monolayers", "type": "in vitro ADME", "conditions": "MDCK-MDR1, pH 7.4"}, "MRP2": {"biological_target": "MRP2 (Homo sapiens, UniProt Q92887)", "sequence (Q92887 whole entry)": "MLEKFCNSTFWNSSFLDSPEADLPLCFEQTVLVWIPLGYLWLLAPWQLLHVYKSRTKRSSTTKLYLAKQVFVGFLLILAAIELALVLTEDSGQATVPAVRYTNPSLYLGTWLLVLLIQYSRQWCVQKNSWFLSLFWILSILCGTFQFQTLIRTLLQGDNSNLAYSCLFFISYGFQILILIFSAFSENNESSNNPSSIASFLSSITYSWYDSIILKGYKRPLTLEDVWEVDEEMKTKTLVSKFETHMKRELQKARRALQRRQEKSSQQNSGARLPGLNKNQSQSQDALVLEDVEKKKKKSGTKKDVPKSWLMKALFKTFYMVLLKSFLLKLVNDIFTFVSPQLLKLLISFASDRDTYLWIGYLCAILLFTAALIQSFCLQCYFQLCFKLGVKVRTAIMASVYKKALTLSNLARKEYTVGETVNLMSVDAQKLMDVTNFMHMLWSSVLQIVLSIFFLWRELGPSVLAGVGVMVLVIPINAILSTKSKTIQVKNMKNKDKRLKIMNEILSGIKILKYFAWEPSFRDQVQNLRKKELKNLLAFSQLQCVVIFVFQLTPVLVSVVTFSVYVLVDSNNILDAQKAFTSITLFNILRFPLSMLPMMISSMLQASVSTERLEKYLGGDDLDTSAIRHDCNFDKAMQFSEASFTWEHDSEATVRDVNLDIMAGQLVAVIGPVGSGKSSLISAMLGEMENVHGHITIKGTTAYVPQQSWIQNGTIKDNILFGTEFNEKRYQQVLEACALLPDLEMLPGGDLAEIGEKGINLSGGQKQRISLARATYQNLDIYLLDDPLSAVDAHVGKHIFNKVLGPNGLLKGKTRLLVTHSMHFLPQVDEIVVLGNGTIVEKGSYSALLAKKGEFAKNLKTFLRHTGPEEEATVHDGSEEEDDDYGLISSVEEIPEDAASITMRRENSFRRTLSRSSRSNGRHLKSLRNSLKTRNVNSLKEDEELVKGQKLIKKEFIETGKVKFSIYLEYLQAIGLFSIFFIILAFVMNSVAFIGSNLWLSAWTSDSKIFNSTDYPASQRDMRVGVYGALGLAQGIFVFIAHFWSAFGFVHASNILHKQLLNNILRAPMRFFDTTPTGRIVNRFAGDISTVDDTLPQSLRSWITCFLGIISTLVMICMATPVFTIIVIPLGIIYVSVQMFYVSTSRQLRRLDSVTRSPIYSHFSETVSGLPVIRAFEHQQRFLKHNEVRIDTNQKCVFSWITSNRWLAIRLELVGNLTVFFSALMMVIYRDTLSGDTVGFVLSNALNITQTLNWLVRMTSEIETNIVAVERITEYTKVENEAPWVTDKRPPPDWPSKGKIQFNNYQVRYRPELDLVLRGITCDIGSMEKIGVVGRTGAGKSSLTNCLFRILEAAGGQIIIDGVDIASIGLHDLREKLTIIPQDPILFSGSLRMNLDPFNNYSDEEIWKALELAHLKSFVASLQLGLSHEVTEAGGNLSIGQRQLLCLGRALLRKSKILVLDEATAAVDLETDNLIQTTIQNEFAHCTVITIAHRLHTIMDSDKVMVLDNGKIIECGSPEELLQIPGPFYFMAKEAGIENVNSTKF", "assay": "Bi-directional transport across MDCK-MRP2 cell monolayers", "type": "in vitro ADME", "conditions": "pH 7.4"}}, "data": [{"smiles": "CC[C@H]1OC(=O)[C@H](C)[C@@H](O[C@H]2C[C@@](C)(OC)[C@@H](O)[C@H](C)O2)[C@H](C)[C@@H](O[C@@H]2O[C@H](C)C[C@H](N(C)C)[C@H]2O)[C@](C)(O)C[C@@H](C)C(=O)[C@H](C)[C@@H](O)[C@]1(C)O", "note": "[Ery, erythromycin]", "values": [{"measurement": "Corneal absorption rate constant (ka) of erythromycin", "setting": "[1]", "value": "4.54±0.62×10^−5 min^−1"}]}, {"smiles": "CN(C)C(=O)CCSC(SCCC(=O)O)c1cccc(/C=C/c2ccc3ccc(Cl)cc3n2)c1", "note": "(stereo not shown) [MK571]", "values": [{"measurement": "Cellular accumulation of [^14C] erythromycin in the presence of specific inhibitor, relative to control", "setting": "rPCEC [2]; [14C] erythromycin 0.25 μCi/ml, 15 min, GF120918 2 μM, MK571 50 μM", "value": 310, "unit": "%"}]}, {"smiles": "C[C@H]1C[C@@H]2[C@H]([C@@H](O)C[C@@]3(C)[C@H]2CC[C@]3(O)C(=O)CO)[C@@]2(C)C=CC(=O)C=C12", "note": "[MPL, 6α-methyl prednisolone]", "values": [{"measurement": "Cellular toxicity (percentage of viable cells vs control)", "setting": "rPCEC [3]", "value": "not toxic"}, {"measurement": "Cellular accumulation of [^14C] erythromycin increased by, relative to control", "setting": "rPCEC [2]; [14C] erythromycin 0.25 μCi/ml, 15 min, steroid 500 μM", "value": 375, "unit": "%"}, {"measurement": "Inhibition of erythromycin efflux", "setting": "rPCEC [2]; steroid 500 μM", "value": "complete inhibition"}]}, {"smiles": "C[C@]12C=CC(=O)C=C1CC[C@@H]1[C@@H]2[C@@H](O)C[C@@]2(C)[C@H]1CC[C@]2(O)C(=O)CO", "note": "[PL, prednisolone]", "values": [{"measurement": "Cellular toxicity (percentage of viable cells vs control)", "setting": "rPCEC [3]", "value": "not toxic"}, {"measurement": "Inhibition of erythromycin efflux", "setting": "rPCEC [2]; steroid 500 μM", "value": "~80", "unit": "%"}]}, {"smiles": "C[C@]12C=CC(=O)C=C1CC[C@@H]1[C@@H]2C(=O)C[C@@]2(C)[C@H]1CC[C@]2(O)C(=O)CO", "note": "[PS, prednisone]", "values": [{"measurement": "Cellular toxicity (percentage of viable cells vs control)", "setting": "rPCEC [3]", "value": "not toxic"}, {"measurement": "Papp A→B at 3.5 h, 10 μM", "setting": "P-gp", "value": "6.97 ± 0.21", "unit": "×10⁻⁶ cm/s"}, {"measurement": "Papp B→A at 3.5 h, 10 μM", "setting": "P-gp", "value": "17.7 ± 0.47", "unit": "×10⁻⁶ cm/s"}, {"measurement": "Papp A→B at 3.5 h, 10 μM", "setting": "MRP2", "value": "6.04 ± 0.15", "unit": "×10⁻⁶ cm/s"}, {"measurement": "Papp B→A at 3.5 h, 10 μM", "setting": "MRP2", "value": "17.8 ± 0.22", "unit": "×10⁻⁶ cm/s"}, {"measurement": "Inhibition of erythromycin efflux", "setting": "rPCEC [2]; steroid 500 μM", "value": "~80", "unit": "%"}]}]}
